In brackets after ≈: the same amount, converted by molar mass.
What was measured:
Experiment in all cases: in vitro antibacterial evaluation, MIC by broth dilution
Type in all cases: cell-based
Escherichia coli = conditions: 18 hours at 35° C.
Staphylococcus sp. = conditions: broth dilution, 18 hours at 35° C.
Method in brief: (§1)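 Following National Committee for Clinical Laboratory Standards recommendations (M7-A2), susceptibility was measured by dilution in Muller-Hinton II […]. Bacteria were seeded at 5×10^5 CFU/mL against compound concentrations from 64 down to 0.06 μg/mL.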

Enterococcus sp. = conditions: broth dilution, 18 hours at 35° C.
Method in brief: as §1

Streptococcus sp. = conditions: broth dilution, 18 hours at 35° C.
Method in brief: as §1

MIC Escherichia coli (ATCC 25922) (Escherichia coli): >128 µg/mL
MIC Escherichia coli (GC 4559) (Escherichia coli): >128 µg/mL
MIC Escherichia coli (GC 4560) (Escherichia coli): 32 µg/mL (≈ 21.8 µM)
MIC Coagulase Negative Staphylococcus (GC 4547) (Staphylococcus sp.): 64 µg/mL (≈ 43.7 µM)
MIC Coagulase Negative Staphylococcus (GC 4548) (Staphylococcus sp.): 64 µg/mL (≈ 43.7 µM)
MIC Coagulase Negative Staphylococcus (GC 4549) (Staphylococcus sp.): 64 µg/mL (≈ 43.7 µM)
MIC Coagulase Negative Staphylococcus (GC 4551) (Staphylococcus sp.): 64 µg/mL (≈ 43.7 µM)
MIC Coagulase Negative Staphylococcus (GC 6257) (Staphylococcus sp.): 32 µg/mL (≈ 21.8 µM)
MIC Staphylococcus aureus (ATCC 29213) (Staphylococcus sp.): 128 µg/mL (≈ 87.3 µM)
MIC Staphylococcus aureus (GC 1131) (Staphylococcus sp.): 128 µg/mL (≈ 87.3 µM)
MIC Staphylococcus aureus (GC 3051) (Staphylococcus sp.): 128 µg/mL (≈ 87.3 µM)
MIC Staphylococcus aureus (GC 3053) (Staphylococcus sp.): 128 µg/mL (≈ 87.3 µM)
MIC Staphylococcus aureus (GC 4541) (Staphylococcus sp.): 64 µg/mL (≈ 43.7 µM)
MIC Staphylococcus aureus (GC 4542) (Staphylococcus sp.): >128 µg/mL
MIC Staphylococcus aureus (GC 4544) (Staphylococcus sp.): 128 µg/mL (≈ 87.3 µM)
MIC Staphylococcus aureus (GC 4545) (Staphylococcus sp.): 128 µg/mL (≈ 87.3 µM)
MIC Staphylococcus aureus-SMITH (GC 4543) (Staphylococcus sp.): 64 µg/mL (≈ 43.7 µM)
MIC Staphylococcus aureus (ATCC 29213) (Staphylococcus sp.; strain ATCC 29213): 128 µg/mL (≈ 87.3 µM)
MIC Staphylococcus aureus (GC 1131) (Staphylococcus sp.; strain GC 1131): 128 µg/mL (≈ 87.3 µM)
MIC Staphylococcus aureus (GC 3051) (Staphylococcus sp.; strain GC 3051): 128 µg/mL (≈ 87.3 µM)
MIC Staphylococcus aureus (GC 3053) (Staphylococcus sp.; strain GC 3053): 128 µg/mL (≈ 87.3 µM)
MIC Staphylococcus aureus (GC 4541) (Staphylococcus sp.; strain GC 4541): 64 µg/mL (≈ 43.7 µM)
MIC Staphylococcus aureus (GC 4542) (Staphylococcus sp.; strain GC 4542): >128 µg/mL
MIC Staphylococcus aureus-SMITH (GC 4543) (Staphylococcus sp.; strain GC 4543): 64 µg/mL (≈ 43.7 µM)
MIC Staphylococcus aureus (GC 4544) (Staphylococcus sp.; strain GC 4544): 128 µg/mL (≈ 87.3 µM)
MIC Staphylococcus aureus (GC 4545) (Staphylococcus sp.; strain GC 4545): 128 µg/mL (≈ 87.3 µM)
MIC Coagulase Negative Staphylococcus (GC 4547) (Staphylococcus sp.; strain GC 4547): 64 µg/mL (≈ 43.7 µM)
MIC Coagulase Negative Staphylococcus (GC 4548) (Staphylococcus sp.; strain GC 4548): 64 µg/mL (≈ 43.7 µM)
MIC Coagulase Negative Staphylococcus (GC 4549) (Staphylococcus sp.; strain GC 4549): 64 µg/mL (≈ 43.7 µM)
MIC Coagulase Negative Staphylococcus (GC 4551) (Staphylococcus sp.; strain GC 4551): 64 µg/mL (≈ 43.7 µM)
MIC Coagulase Negative Staphylococcus (GC 6257) (Staphylococcus sp.; strain GC 6257): 32 µg/mL (≈ 21.8 µM)
MIC Enterococcus avium (GC 4558) (Enterococcus sp.): 128 µg/mL (≈ 87.3 µM)
MIC Enterococcus faecalis (ATCC 29212) (Enterococcus sp.): >128 µg/mL
MIC Enterococcus faecalis (GC 2242) (Enterococcus sp.): >128 µg/mL
MIC Enterococcus faecalis (GC 2691) (Enterococcus sp.): >128 µg/mL
MIC Enterococcus faecalis (GC 3059) (Enterococcus sp.): >128 µg/mL
MIC Enterococcus faecalis (GC 4552) (Enterococcus sp.): >128 µg/mL
MIC Enterococcus faecalis (GC 4553) (Enterococcus sp.): 128 µg/mL (≈ 87.3 µM)
MIC Enterococcus faecalis (GC 4554) (Enterococcus sp.): >128 µg/mL
MIC Enterococcus faecalis (GC 6189) (Enterococcus sp.): >128 µg/mL
MIC Enterococcus faecium (GC 2243) (Enterococcus sp.): 128 µg/mL (≈ 87.3 µM)
MIC Enterococcus faecium (GC 4556) (Enterococcus sp.): >128 µg/mL
MIC Enterococcus faecium (GC 4557) (Enterococcus sp.): 32 µg/mL (≈ 21.8 µM)
MIC Enterococcus faecalis (ATCC 29212) (Enterococcus sp.; inoculum 5×10^5 CFU/mL, strain ATCC 29212): >128 µg/mL
MIC Enterococcus faecalis (GC 2242) (Enterococcus sp.; inoculum 5×10^5 CFU/mL, strain GC 2242): >128 µg/mL
MIC Enterococcus faecium (GC 2243) (Enterococcus sp.; inoculum 5×10^5 CFU/mL, strain GC 2243): 128 µg/mL (≈ 87.3 µM)
MIC Enterococcus faecalis (GC 2691) (Enterococcus sp.; inoculum 5×10^5 CFU/mL, strain GC 2691): >128 µg/mL
MIC Enterococcus faecalis (GC 3059) (Enterococcus sp.; inoculum 5×10^5 CFU/mL, strain GC 3059): >128 µg/mL
MIC Enterococcus faecalis (GC 4552) (Enterococcus sp.; inoculum 5×10^5 CFU/mL, strain GC 4552): >128 µg/mL
MIC Enterococcus faecalis (GC 4553) (Enterococcus sp.; inoculum 5×10^5 CFU/mL, strain GC 4553): 128 µg/mL (≈ 87.3 µM)
MIC Enterococcus faecalis (GC 4554) (Enterococcus sp.; inoculum 5×10^5 CFU/mL, strain GC 4554): >128 µg/mL
MIC Enterococcus faecium (GC 4556) (Enterococcus sp.; inoculum 5×10^5 CFU/mL, strain GC 4556): >128 µg/mL
MIC Enterococcus faecium (GC 4557) (Enterococcus sp.; inoculum 5×10^5 CFU/mL, strain GC 4557): 32 µg/mL (≈ 21.8 µM)
MIC Enterococcus avium (GC 4558) (Enterococcus sp.; inoculum 5×10^5 CFU/mL, strain GC 4558): 128 µg/mL (≈ 87.3 µM)
MIC Enterococcus faecalis (GC 6189) (Enterococcus sp.; inoculum 5×10^5 CFU/mL, strain GC 6189): >128 µg/mL
MIC Streptococcus agalactiae (GC 4564) (Streptococcus sp.): 32 µg/mL (≈ 21.8 µM)
MIC Streptococcus pneumoniae (ATCC 6301) (Streptococcus sp.): 32 µg/mL (≈ 21.8 µM)
MIC Streptococcus pneumoniae (GC 1894) (Streptococcus sp.): 16 µg/mL (≈ 10.9 µM)
MIC Streptococcus pneumoniae (GC 4565) (Streptococcus sp.): 32 µg/mL (≈ 21.8 µM)
MIC Streptococcus pyogenes (GC 4563) (Streptococcus sp.): 64 µg/mL (≈ 43.7 µM)
MIC Streptococcus pneumoniae (ATCC 6301) (Streptococcus sp.; inoculum 5×10^5 CFU/mL, strain ATCC 6301): 32 µg/mL (≈ 21.8 µM)
MIC Streptococcus pneumoniae (GC 1894) (Streptococcus sp.; inoculum 5×10^5 CFU/mL, strain GC 1894): 16 µg/mL (≈ 10.9 µM)
MIC Streptococcus pyogenes (GC 4563) (Streptococcus sp.; inoculum 5×10^5 CFU/mL, strain GC 4563): 64 µg/mL (≈ 43.7 µM)
MIC Streptococcus agalactiae (GC 4564) (Streptococcus sp.; inoculum 5×10^5 CFU/mL, strain GC 4564): 32 µg/mL (≈ 21.8 µM)
MIC Streptococcus pneumoniae (GC 4565) (Streptococcus sp.; inoculum 5×10^5 CFU/mL, strain GC 4565): 32 µg/mL (≈ 21.8 µM)
Compound: COc1ccc2cc(COC3C(OC4C(CO)OC(Oc5ccc(CC6NC(=O)C(C(C)c7ccccc7)NC(=O)CNC(=O)C(CO)NC(=O)C(C(O)C7CNC(=N)N7C7OC(CO)C(O)C(O)C7O)NC(=O)C(C(O)C7CNC(=N)N7)NC6=O)cc5)C(O)C4O)OC(CO)C(O)C3O)ccc2c1 (stereo not drawn) [Example 230c, Cyclo[glycyl-β-methylphenylalanyl-O-[4-O-[2-O-[(6-methoxy-2-naphthyl)methyl]hexopyranosyl]hexopyranosyl]tyrosyl-3-(2-iminoimidazolidin-4-yl)seryl-3-(3-hexopyranosyl-2-iminoimidazolidin-4-yl)serylseryl]]
MIC Staphylococcus haemolyticus (GC 4546) (Staphylococcus sp.): 64 µg/mL (≈ 43.7 µM)
MIC Staphylococcus haemolyticus (GC 4546) (Staphylococcus sp.; strain GC 4546): 64 µg/mL (≈ 43.7 µM)

Reference: patent US6914045B2, “Glycopeptide antibiotics” (Wyeth Holdings Corporation, priority 2001, dated 2005)
